# Experiments:
# castrated rats = assay: Biological tests for penile reflexes (latency and number of E2 and cups) after transdermal application; type: in vivo; conditions: ointment with Sefsol 318 carrier; for Number of E2: during the test period (Fig. 1C); for Number of Cups: during the test period (Fig. 1D)
# Protocol: The following ointment compositions were prepared and tested for transdermal application of lipophilic conjugated modified VIP derivatives in accordance with the present invention. Similar conjugates of unmodified VIP derivatives were tested for comparison. • 1. Ointment containing glycerine as a carrier: The ointment was prepared as follows: 2 g glycerine + 10 mg stearoyl-VIP + 7 drops of DMSO (dimethylsulfoxide). Each rat received 30-50 µg of stearoyl-VIP in about 10 µl ointment. (GLY in Figure 1). • 2. Ointment containing a lubricant as a carrier: The ointment was prepared as above, only glycerine was replaced by lubricant (K-Y Lubricating Jelly, Johnson & Johnson, containing propylene glycol and glycerine), 7 drops of DMSO equals about 130 µl. (LUB in Figure 1). • 3. Ointment containing a lubricant and nitroglycerine as a carrier: Prepared as in (2) above with 1.7 ml nitroglycerine (1 mg/ml), (LUB-NTG in Figure 1). • 4. Ointment containing Sefsol 318™ (12) as a carrier: The ointment composition was: 31.2 µl 10% Sefsol 318™ (glyceryl monocaprylate), 0.24 mg stearoyl-VIP in 31.2 µl DMSO (1-2µl per animal) (SEFS in Figure 1) or 0.24 mg stearoyl -Nle^17-VIP in 31.2µl DMSO (SEFS in Fig. 1).
# The biological tests involved measurements of penile reflexes in castrated rats following transdermal application of modified and native VIP conjugates. […] In a further set of experiments the effects of stearoyl-VIP compounded with Sefsol 318™ were compared with those of stearoyl -Nle^17-VIP compounded with Sefsol 318™.
# Rats with reduced sexual potential due to castration were employed. Male rats (250-300 g, about three month old) were kept in a 12-hours light, 12-hours dark cycle. Experiments were always conducted within the dark period, 2-6 hours after the onset of darkness. Male rats were castrated and given partial testosterone replacement (4 µg/100 g body weight) in the form of daily injection for 14-21 consecutive days (the duration of the experiment). Experiments were conducted one week following surgery.
# A procedure was utilized that employed the technique that measures sexual reflexes in the penis, which enables direct evaluation of penile erection following transdermal administration of the drug. Successful reproduction depends, in large part, upon the precise execution of temporally organized, functionally related behavioural units. In these experiments, we concentrated on the final stages of the erection process (reddening of the penis accompanied by its distension and extension leading to complete erection) and monitored the latency time to the first E2 and first cup (13).
# For testing, each animal was restrained in a supine position with the anterior portion of its body enclosed in a loosely fitting cylinder (7 cm diam). After a belt was secured around the torso, the glans penis was extruded from its sheath and gently held perpendicular to the abdomen by a thin wooden applicator positioned at the posterior of the penis. The legs of the male were held by the observer and this position was maintained throughout the test period. The duration of the session was 45 minutes. The latencies and numbers of E2 and cups were recorded and plotted.
# An E2 is defined as a complete erection which can be followed by cup in which the penile tip is turned into a cup-like structure, whereby the glands flare out such that the penis is wider in its distal portion than its base. This final stage requires E2 and is probably a pre-requisite for ejaculation (13). Using all the parameters one can obtain a reliable measure of the sexual activity of the tested rat.
# Six to ten animals were tested in this paradigm for each variable. Control animals received ointment compositions without St-VIP or St-Nle^17-VIP.
# [1] = Skin penetration and body distribution of 125I-labelled VIP derivatives after transdermal application in Sefsol 318; type: in vivo
# Excerpt: These experiments were divided into two groups. In the first group of experiments we performed a time course of the distribution of radioactively labelled stearoyl-Nle^17-VIP (in Sefsol 318™), applied transdermally, in various organs of the body. In the second group of experiments we compared the penetration of four radioactively labelled VIP derivatives with Sefsol 318™ following transdermal application. Two to four animals were used for each data point. The derivatives were labelled with ^125I using the chloramine-T based method (14).
# In the first group of experiments, stearoyl-Nle^17-VIP was radioactively labelled with ^125I. Each animal received 2.2 million CPM, in 6µl of the radioactive material+ 26µl ointment (ointment No. 4 in Example 5). Two animals were used for each time point in two independent experiments. To avoid oral absorbance, the animal mouth was sealed. At indicated times following topical application, animals were sacrificed and duplicate tissue samples were removed, weighed and counted in a gamma counter. Tissues measured were: lungs (LU), heart (HE), kidneys (KI), liver (LI) and intestine (IN).
# In the second group of experiments compositions of Sefsol 318™ and VIP, St-VIP, Nle^17-VIP and St-Nle^17-VIP were prepared. The experiments were performed as in Figure 2 with the only difference that each animal received a 2.4 million CPM. 2-4 animals were utilized for each variable. Animals were sacrificed 30 minutes after the application of the drug.
# rat [2] = assay: Acute toxicology studies; type: in vivo; conditions: for gross side effects / mortality: dose of 7 mg/rat
# Protocol: (§1) To assess the degree of toxicity and possible side effects of stearoyl-Nle^17-VIP, two types of studies were performed: 1. acute toxicology studies; 2. repeated dose toxicity studies.
# (§2) The drug was prepared essentially as follows: 539 mg stearoyl-Nle^17-VIP+2.31 ml 10% Sefsol+2.31 ml 40% isopropanol. The experimental animal was the rat (160-300 g body weight).
# (§3) In the acute toxicology studies, three routes of administration were chosen: 1. subcutaneous; 2. intravenous; 3. oral.
# rat [3] = assay: Repeated dose toxicity studies, daily topical application; type: in vivo; conditions: daily topical application (to the sex organ), dose of 3.5 mg/animal
# Protocol: as §1, §2, §3
# [4] = Stability compared with the unmodified conjugate; type: physicochemical; conditions: compared with stearoyl-VIP in which the amino acid sequence was not altered
Molecule,Number of E2 (castrated rats),Number of Cups (castrated rats),Latency to first E2 (castrated rats; 45 min session (Fig. 1A)),Latency to first cup (castrated rats; 45 min session (Fig. 1B)),"tissue concentrations compared among VIP, St-VIP, Nle^17-VIP and St-Nle^17-VIP ([1]; in Sefsol 318, animals sacrificed 30 minutes after application (Fig. 3))","peak deliveries (time after administration) ([1]; in Sefsol 318, topical, lungs, heart, kidneys, liver, intestine (Fig. 2))","disappearance (time after administration) ([1]; in Sefsol 318, topical, tissue samples (Fig. 2))",LD50 (rat [2]; intravenous injection),gross side effects (rat [2]; oral administration),mortality (rat [2]; oral administration),gross side effects (rat [2]; subcutaneous administration),mortality (rat [2]; subcutaneous administration),mortality (rat [3]),side effects (rat [3]),stability relative to stearoyl-VIP [4]
"CCCCCCCCCCCCCCCCCC(=O)N[C@@H](Cc1c[nH]cn1)C(=O)N[C@@H](CO)C(=O)N[C@@H](CC(=O)O)C(=O)N[C@@H](C)C(=O)N[C@H](C(=O)N[C@@H](Cc1ccccc1)C(=O)N[C@H](C(=O)N[C@@H](CC(=O)O)C(=O)N[C@@H](CC(N)=O)C(=O)N[C@@H](Cc1ccc(O)cc1)C(=O)N[C@H](C(=O)N[C@@H](CCCNC(=N)N)C(=O)N[C@@H](CC(C)C)C(=O)N[C@@H](CCCNC(=N)N)C(=O)N[C@@H](CCCCN)C(=O)N[C@@H](CCC(N)=O)C(=O)N[C@@H](CCSC)C(=O)N[C@@H](C)C(=O)N[C@H](C(=O)N[C@@H](CCCCN)C(=O)N[C@@H](CCCCN)C(=O)N[C@@H](Cc1ccc(O)cc1)C(=O)N[C@@H](CC(C)C)C(=O)N[C@@H](CC(N)=O)C(=O)N[C@@H](CO)C(=O)N[C@H](C(=O)N[C@@H](CC(C)C)C(=O)N[C@@H](CC(N)=O)C(N)=O)[C@@H](C)CC)C(C)C)[C@@H](C)O)[C@@H](C)O)C(C)C [St-VIP, stearoyl-VIP, reference compound]",24,12,,,,,,,,,,,,,
stearoyl -norleucine^17-VIP [St-Nle^17-VIP],34,20,about 1 minute,10 min,highest concentrations,15 to 60 min,2.5 h,7 mg/rat,no gross side effects,no mortality,no gross side effects,no mortality,no mortality,nor any side effects,more stable

# Source: patent publication EP0540969B1, “Derivatives of structurally modified VIP and pharmaceutical compositions containing them” (YEDA RESEARCH AND DEVELOPMENT CO. LTD., priority 1991, dated 1998)
